Source: patent publication US20090048214A1, “Methods for Treating Renal Tumors Using 2, 4-Pyrimidinediamine Drug and Prodrug Compounds” (RIGEL PHARMACEUTICALS, INC, priority 2006, published 2009)

Key:
CCRF-CEM [1] = details: Leukemia, besylate salt
HL-60(TB) = details: Leukemia, besylate salt
MOLT-4 [2] = details: MOLT-4, Leukemia; besylate salt
A549/ATCC = details: Non-Small Cell Lung Cancer, besylate salt
EKVX = details: Non-Small Cell Lung Cancer, besylate salt
HCC-2998 = details: HCC-2998, Colon Cancer; besylate salt
CCRF-CEM [3] = assay: cells; details: Homo sapiens, read-out: LC50
KM12 = details: KM12, Colon Cancer; besylate salt
SW-620 [4] = details: SW-620, Colon Cancer; besylate salt
SNB-19 = details: SNB-19, CNS Cancer; besylate salt
MALME-3M = details: Melanoma, besylate salt
M14 = details: M14, Melanoma; besylate salt
OVCAR-5 = details: OVCAR-5, Ovarian Cancer; besylate salt
OVCAR-8 = details: OVCAR-8, Ovarian Cancer; besylate salt
786-0 = details: 786-0, Renal Cancer; besylate salt
MOLT-4 [5] = assay: cells; details: Homo sapiens
DU-145 = details: DU-145, Prostate Cancer; besylate salt
MCF7 [6] = details: MCF7, Breast Cancer; besylate salt
RPM1-8226 = assay: cells; details: Homo sapiens
HOP-62 = assay: cells; details: Homo sapiens
HOP-92 = assay: cells; details: Homo sapiens
HCT-116 = assay: cells; details: Homo sapiens, HCT-116, read-out: LC50
HCT-15 = assay: cells; details: Homo sapiens, HCT-15, read-out: LC50
HT29 = assay: cells; details: Homo sapiens
SW-620 [7] = assay: cells; details: Homo sapiens, SW-620, read-out: LC50
SF-295 = assay: cells; details: Homo sapiens, SF-295, read-out: LC50
SK-MEL-2 = assay: cells; details: Homo sapiens
SK-MEL-28 = assay: cells; details: Homo sapiens
UACC-62 = assay: cells; details: Homo sapiens, UACC-62, read-out: LC50
IGROV1 = assay: cells; details: Homo sapiens
A498 = assay: cells; details: Homo sapiens
ACHN = assay: cells; details: Homo sapiens
RXF 393 = assay: cells; details: Homo sapiens
SN12C = assay: cells; details: Homo sapiens
TK-10 = assay: cells; details: Homo sapiens, TK-10, read-out: LC50
MCF7 [8] = assay: cells; details: Homo sapiens
MDA-MB-231/ATCC = assay: cells; details: Homo sapiens, MDA-MB-231, read-out: LC50
MDA-MB-435 = assay: cells; details: Homo sapiens
BT-549 = assay: cells; details: Homo sapiens

**Q.** `COc1cc(Nc2ncc(F)c(Nc3ccc4c(n3)NC(=O)C(C)(C)O4)n2)cc(OC)c1OC` [Compound 1] was tested. Which TGI (CCRF-CEM [1]) did it give?
**A.** >1.00E−4

**Q.** And the TGI (HL-60(TB))?
**A.** >1.00E−4

**Q.** What about the TGI (MOLT-4 [2]) of the same compound?
**A.** >1.00E−4

**Q.** And the TGI (A549/ATCC)?
**A.** >1.00E−4

**Q.** What about the TGI (EKVX) of the same compound?
**A.** >1.00E−4

**Q.** What about the TGI (HCC-2998) of the same compound?
**A.** >1.00E−4

**Q.** What about the CC50 (CCRF-CEM [3]) of the same compound?
**A.** > 100 µM

**Q.** And the TGI (KM12)?
**A.** >1.00E−4

**Q.** What about the TGI (SW-620 [4]) of the same compound?
**A.** >1.00E−4

**Q.** What about the TGI (SNB-19) of the same compound?
**A.** >1.00E−4

**Q.** What about the TGI (MALME-3M) of the same compound?
**A.** >1.00E−4

**Q.** And the TGI (M14)?
**A.** >1.00E−4

**Q.** What about the TGI (OVCAR-5) of the same compound?
**A.** >1.00E−4

**Q.** What about the TGI (OVCAR-8) of the same compound?
**A.** >1.00E−4

**Q.** What about the TGI (786-0) of the same compound?
**A.** >1.00E−4

**Q.** What about the IC50 (MOLT-4 [5]; MOLT-4, read-out: G150) of the same compound?
**A.** 4.82 µM

**Q.** What about the CC50 (MOLT-4 [5]; MOLT-4, read-out: LC50) of the same compound?
**A.** > 100 µM

**Q.** And the TGI (DU-145)?
**A.** >1.00E−4

**Q.** What about the TGI (MCF7 [6]) of the same compound?
**A.** >1.00E−4

**Q.** What about the IC50 (RPM1-8226; read-out: G150) of the same compound?
**A.** > 100 µM

**Q.** And the CC50 (RPM1-8226; read-out: LC50)?
**A.** > 100 µM

**Q.** What about the IC50 (HOP-62; HOP-62, read-out: G150) of the same compound?
**A.** 0.537 µM

**Q.** And the CC50 (HOP-62; HOP-62, read-out: LC50)?
**A.** > 100 µM

**Q.** And the IC50 (HOP-92; HOP-92, read-out: G150)?
**A.** 0.41 µM

**Q.** What about the CC50 (HOP-92; HOP-92, read-out: LC50) of the same compound?
**A.** > 100 µM

**Q.** And the CC50 (HCT-116)?
**A.** > 100 µM

**Q.** What about the CC50 (HCT-15) of the same compound?
**A.** > 100 µM

**Q.** And the IC50 (HT29; HT-29, read-out: G150)?
**A.** 2.19 µM

**Q.** What about the CC50 (HT29; HT-29, read-out: LC50) of the same compound?
**A.** > 100 µM

**Q.** What about the CC50 (SW-620 [7]) of the same compound?
**A.** > 100 µM

**Q.** What about the CC50 (SF-295) of the same compound?
**A.** > 100 µM

**Q.** What about the IC50 (SK-MEL-2; SK-MEL-2, read-out: G150) of the same compound?
**A.** > 100 µM

**Q.** What about the CC50 (SK-MEL-2; SK-MEL-2, read-out: LC50) of the same compound?
**A.** > 100 µM

**Q.** What about the IC50 (SK-MEL-28; SK-MEL-28, read-out: G150) of the same compound?
**A.** > 100 µM

**Q.** What about the CC50 (SK-MEL-28; SK-MEL-28, read-out: LC50) of the same compound?
**A.** > 100 µM

**Q.** What about the CC50 (UACC-62) of the same compound?
**A.** > 100 µM

**Q.** And the IC50 (IGROV1; IGROV-1, read-out: G150)?
**A.** 0.796 µM

**Q.** What about the CC50 (IGROV1; IGROV-1, read-out: LC50) of the same compound?
**A.** > 100 µM

**Q.** And the IC50 (A498; A498, read-out: G150)?
**A.** 0.36 µM

**Q.** What about the CC50 (A498; A498, read-out: LC50) of the same compound?
**A.** > 100 µM

**Q.** What about the IC50 (ACHN; read-out: G150) of the same compound?
**A.** 1.24 µM

**Q.** What about the CC50 (ACHN; read-out: LC50) of the same compound?
**A.** > 100 µM

**Q.** And the IC50 (RXF 393; RXF 393, read-out: G150)?
**A.** 0.196 µM

**Q.** And the CC50 (RXF 393; RXF 393, read-out: LC50)?
**A.** > 100 µM

**Q.** And the IC50 (SN12C; read-out: G150)?
**A.** 0.698 µM

**Q.** What about the CC50 (SN12C; read-out: LC50) of the same compound?
**A.** > 100 µM

**Q.** And the CC50 (TK-10)?
**A.** > 100 µM

**Q.** What about the IC50 (MCF7 [8]; MCF7, read-out: G150) of the same compound?
**A.** 2.72 µM

**Q.** What about the CC50 (MCF7 [8]; MCF7, read-out: LC50) of the same compound?
**A.** > 100 µM

**Q.** What about the CC50 (MDA-MB-231/ATCC) of the same compound?
**A.** > 100 µM

**Q.** And the IC50 (MDA-MB-435; MDA-MB-435, read-out: G150)?
**A.** 3.62 µM

**Q.** And the CC50 (MDA-MB-435; MDA-MB-435, read-out: LC50)?
**A.** > 100 µM

**Q.** And the IC50 (BT-549; BT-549, read-out: G150)?
**A.** 2.43 µM

**Q.** What about the CC50 (BT-549; BT-549, read-out: LC50) of the same compound?
**A.** > 100 µM
